Assay results as given in patent US6525043B2, “Use of ion channel modulating agents” (NeuroSearch A/S, priority 1999, dated 2003).

Target: T1, Intermediate-conductance Ca2+-activated K+ channels (IK channels) (Homo sapiens, UniProt O15554)
T1 construct: expressed in transfected cells
Test: Whole-cell patch-clamp recording of ionic current through IK channels stably expressed in HEK293 cells
Type: cell-based
Conditions: hIK in HEK293 cells, voltage-ramps -100 to +100 mV, free Ca2+ 100 nM, room temperature
Experimental: In this experiment the ionic current through Intermediate-conductance Ca^2+-activated K^+channels (IK channels) is recorded in the whole-cell mode of the patch-clamp technique.
Intermediate-conductance Ca^2+-activated K^+ channels (IK channels) have been cloned from human placenta and stably expressed in HEK293 cells.
Human IK (hIK) was excised from pT3T7 (GenBank Acc. No. N56819) using EcoR I and Not I and sub-cloned into the mammalian expression vector pNS1Z (NeuroSearch), a custom designed derivative of pcDNA3Zeo (InVitrogen) to give the plasmid construct pNS1Z13 hIK. HEK293 tissue culture cells were grown in DMEM (Dulbecco's Modified Eagle Medium) supplemented with 10% FCS (foetal calf serum) at 37° C. in 5% CO2. […]
Experiments are carried out on one of several patch-clamp set-ups. […] Data are stored directly on the hard-disk and analysed by the IGOR software (Wavemetrics, Lake Oswega, Oreg., USA).
The whole-cell configuration of the patch clamp technique is applied. […] Cell capacitance is electronically compensated and the resistance between the pipette and the cell interior (the series resistance, Rs) is measured and compensated for. […]
The intracellular (pipette) solution has the following composition (conc. in mM): 144 KCl, 10 EGTA, 1.4 MgCl2, 5.17 CaCl2, and 10 HEPES (pH=7.2). The calculated free concentration of Ca^2+ in this solution is 100 nM and that of Mg^2+ is 1 mM. […]

Row | SMILES | SC100 (Stimulating Concentration required to induce a 100% increase (doubling) in the basal current)
1 | ON=C1c2ccccc2-c2ccccc21 [9H-9-fluorenone-oxime] | 0.08 µM
2 | c1ccc2c(c1)[nH]c1ccccc12 [Carbazole, carbazole] | 0.2 µM
